Results published in PubChem BioAssay (NCI).
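48-hour exposure; five concentrations; linearly interpolated endpoints. The concentration for full growth arrest is given as TGI.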

What was measured:
Assay in all cases: NCI anticancer screen, dose series, 48 h
[1] = tested on: MALME-3M melanoma
[2] = tested on: KM12 colon
[3] = tested on: CAKI-1 renal
[4] = tested on: U251 CNS
[5] = tested on: LOX IMVI melanoma
[6] = tested on: NCI/ADR-RES ovarian
[7] = tested on: HCT-15 colon
[8] = tested on: MDA-N
[9] = tested on: SNB-75 CNS
[10] = tested on: RXF 393 renal
[11] = tested on: SK-OV-3 ovarian
[12] = tested on: SF-539 CNS
[13] = tested on: SK-MEL-28 melanoma
[14] = tested on: HOP-92 NSCLC
[15] = tested on: OVCAR-3 ovarian
[16] = tested on: NCI-H23 lung
[17] = tested on: TK-10 renal
[18] = tested on: UACC-62 melanoma
[19] = tested on: BT-549 breast
[20] = tested on: NCI-H226 lung

Compound	TGI [1]	TGI [2]	TGI [3]	TGI [4]	TGI [5]	TGI [6]	TGI [7]	TGI [8]	TGI [9]	TGI [10]	TGI [11]	TGI [12]	TGI [13]	TGI [14]	TGI [15]	TGI [16]	TGI [17]	TGI [18]	TGI [19]	TGI [20]
c1ccc(C(C2=Nc3cccc4cccc(c34)N2)c2ccccc2)cc1	73.3 µM	49.6 µM	> 100 µM	35.3 µM	37.3 µM	50.5 µM	93.6 µM	49.3 µM	72.4 µM	61.5 µM	51.8 µM	34.2 µM	52 µM	44 µM	41.5 µM	> 100 µM	> 100 µM	32.8 µM	61.4 µM	84.7 µM
O=C(C1OC1c1ccc(Cl)cc1)C12CC3CC(CC(C3)C1)C2 (stereo not given)	69.8 µM	41 µM	67.5 µM	29.2 µM	16.6 µM	49 µM	82 µM	36.6 µM	96.1 µM	39.2 µM	74 µM	32.5 µM	32.5 µM	39 µM	30 µM	38.4 µM	> 100 µM	45.1 µM	52.1 µM	38.5 µM
C=Cc1nc2c(Cl)ncnc2n1Cc1ccccc1	15.1 µM	11.5 µM	3.99 µM	22.6 µM	8.44 µM	23.1 µM	8.05 µM	13.6 µM	28.4 µM	7.84 µM	31 µM	8.77 µM	11.3 µM	4.66 µM	7.95 µM	11.6 µM	7.72 µM	19.8 µM	10.9 µM	17 µM
CC1OC(OC2C(O[C@H]3CC[C@@H]4C(=CC[C@@H]5[C@@]4(C)C(=O)C[C@]4(C)[C@@H]([C@H](C)CC[C@@H](O)C(C)(C)O)CC[C@@]54C)C3(C)C)OC(CO)C(O)C2O)C(O)C(O)C1O (stereo not given in full)	> 100 µM	> 100 µM	> 100 µM	> 100 µM	> 100 µM	> 100 µM	> 100 µM	> 100 µM	> 100 µM	> 100 µM	> 100 µM	> 100 µM	> 100 µM	> 100 µM	> 100 µM	> 100 µM	> 100 µM	> 100 µM	> 100 µM	> 100 µM
